Paper PMC3480796 (Indian Journal of Pharmacology, 2012)

Target: cystic fibrosis transmembrane conductance regulator (CFTR) (Homo sapiens, UniProt P13569)
Assay: apical chloride current
Format: cell-based

Sequence of cystic fibrosis transmembrane conductance regulator (CFTR) (P13569 whole entry): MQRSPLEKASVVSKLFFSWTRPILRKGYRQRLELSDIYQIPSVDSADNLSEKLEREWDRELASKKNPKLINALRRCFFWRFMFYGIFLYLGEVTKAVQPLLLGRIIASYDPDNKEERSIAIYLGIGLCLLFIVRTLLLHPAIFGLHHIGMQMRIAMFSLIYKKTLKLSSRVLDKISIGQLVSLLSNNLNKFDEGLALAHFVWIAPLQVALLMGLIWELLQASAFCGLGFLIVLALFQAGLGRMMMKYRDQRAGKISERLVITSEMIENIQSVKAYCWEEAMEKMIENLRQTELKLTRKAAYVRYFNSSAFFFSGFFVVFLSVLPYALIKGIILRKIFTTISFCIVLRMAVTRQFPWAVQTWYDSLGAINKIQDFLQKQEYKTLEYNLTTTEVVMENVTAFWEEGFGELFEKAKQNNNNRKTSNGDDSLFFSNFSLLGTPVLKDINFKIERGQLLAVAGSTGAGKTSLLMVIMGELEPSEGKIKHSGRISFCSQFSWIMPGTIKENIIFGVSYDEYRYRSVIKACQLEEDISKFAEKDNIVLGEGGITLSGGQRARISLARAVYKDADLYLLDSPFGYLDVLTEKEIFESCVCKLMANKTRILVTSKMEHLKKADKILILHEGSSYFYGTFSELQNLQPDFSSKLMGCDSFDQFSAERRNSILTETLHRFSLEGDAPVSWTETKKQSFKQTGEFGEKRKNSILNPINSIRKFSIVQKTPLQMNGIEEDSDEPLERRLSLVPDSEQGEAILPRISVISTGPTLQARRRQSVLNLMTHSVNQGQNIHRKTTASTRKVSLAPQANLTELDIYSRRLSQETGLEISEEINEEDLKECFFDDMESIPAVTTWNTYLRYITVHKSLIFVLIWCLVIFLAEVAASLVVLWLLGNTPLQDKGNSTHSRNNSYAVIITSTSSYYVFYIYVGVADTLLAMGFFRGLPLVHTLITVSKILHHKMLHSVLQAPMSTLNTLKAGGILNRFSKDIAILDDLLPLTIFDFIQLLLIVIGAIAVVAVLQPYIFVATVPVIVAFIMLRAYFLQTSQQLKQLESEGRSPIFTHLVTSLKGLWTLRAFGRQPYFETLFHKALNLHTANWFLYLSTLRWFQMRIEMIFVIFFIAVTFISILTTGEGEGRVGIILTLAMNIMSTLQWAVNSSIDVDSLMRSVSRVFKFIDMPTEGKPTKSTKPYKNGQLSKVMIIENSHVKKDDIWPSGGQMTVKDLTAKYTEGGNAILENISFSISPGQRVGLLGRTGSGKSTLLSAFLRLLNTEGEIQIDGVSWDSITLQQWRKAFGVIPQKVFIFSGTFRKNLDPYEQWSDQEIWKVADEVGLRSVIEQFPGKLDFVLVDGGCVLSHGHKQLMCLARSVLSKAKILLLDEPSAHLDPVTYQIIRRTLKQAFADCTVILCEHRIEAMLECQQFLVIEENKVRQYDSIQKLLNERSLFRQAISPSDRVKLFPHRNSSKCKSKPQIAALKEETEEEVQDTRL

CCOC(=O)CSc1nc2ccccc2c(=O)n1-c1ccccc1C [DQA, ethyl 2-(4-oxo-3-o-tolyl-3,4-dihydroquinazolin-2-ylthio)acetate]
IC50: ~20 µM
